Reference: patent US12208088B2 (Genentech, Inc., priority 2018, dated 2025)

Target: HPK1 (Homo sapiens (Human), UniProt Q92918)
Experiment: HPK1 Lantha binding assay ("Lanth")
Conditions: binding assays; Morrison Ki fit
Summary of the method: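 Ki values are from Morrison-equation fitting of 665/615 nm TR-FRET signals, taking enzyme level, tracer level and tracer Kd into account. The assay mix held HPK1 (2 nM), Eu-anti-GST antibody (2 nM) and Tracer222 (15 nM). Incubations were two 1 h steps at 23 °C, on 5-fold serial compound dilutions.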

Chain of HPK1 (Q92918 1-346 limits assumed): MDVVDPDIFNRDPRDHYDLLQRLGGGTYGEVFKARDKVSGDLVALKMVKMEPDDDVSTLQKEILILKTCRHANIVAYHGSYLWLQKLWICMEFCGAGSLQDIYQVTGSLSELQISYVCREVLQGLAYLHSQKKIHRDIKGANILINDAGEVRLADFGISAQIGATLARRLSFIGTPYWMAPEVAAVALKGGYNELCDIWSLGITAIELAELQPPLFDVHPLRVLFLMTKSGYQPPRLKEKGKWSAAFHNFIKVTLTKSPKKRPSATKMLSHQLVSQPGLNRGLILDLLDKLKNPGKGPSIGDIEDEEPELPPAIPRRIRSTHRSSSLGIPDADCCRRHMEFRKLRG

| Structure (SMILES) | Ki [nM] |
| --- | --- |
| C[C@@H](c1cnn(C)c1)N(C)C(=O)c1cccc(-c2cnc3c(c2)C2(CC2)CN3)c1F (single isomer, unassigned) [Compound 229b] | 13 |
| CC(C)[C@@H]1C[C@@]12CNc1ncc(-c3ccc(N)c(C(=O)N(C)C)c3F)cc12 (single isomer, unassigned) [Compound 234c] | 103 |
| CC(C)C1C[C@]12CNc1ncc(-c3ccc(N)c(C(=O)N(C)C)c3F)cc12 (single isomer, unassigned) [Compound 234d] | 51.9 |
| Cn1cc([C@@H]2CCCCN2C(=O)c2c(N)ccc(-c3cnc4c(c3Cl)C3(CC=CC3)CN4)c2F)cn1 (single isomer, unassigned) [Compound 239b] | 21 |
| Cn1cc([C@@H]2CCCCN2C(=O)c2cccc(-c3cnc4c(c3Cl)C3(CC=CC3)CN4)c2F)cn1 (single isomer, unassigned) [Compound 240b] | 112 |
| CC[C@@H]1C[C@@]12CNc1ncc(-c3ccc(N)c(C(=O)N(C)C)c3F)cc12 (single isomer, unassigned) [Compound 243c] | 63.1 |
| CC[C@H]1C[C@]12CNc1ncc(-c3ccc(N)c(C(=O)N(C)C)c3F)cc12 (single isomer, unassigned) [Compound 243d] | 25.1 |
| Cn1cc(C2CCCCN2C(=O)c2cccc(-c3cnc4c(c3Cl)[C@]3(CC[C@H](O)CC3)CN4)c2F)cn1 (single isomer, unassigned) [Compound 246b] | 316 |
| Cn1cc(C2CCCCN2C(=O)c2c(N)ccc(-c3cnc4c(c3)[C@]3(CC[C@H](O)CC3)CN4)c2F)cn1 (single isomer, unassigned) [Compound 253a] | 23.1 |
| Cn1cc(C2CCCCN2C(=O)c2c(N)ccc(-c3cnc4c(c3Cl)[C@]3(CC[C@H](O)CC3)CN4)c2F)cn1 (single isomer, unassigned) [Compound 254b] | 109 |
| CN(C)C(=O)c1c(N)ccc(-c2cnc3c(c2Cl)[C@@]2(CC[C@@](C)(C#N)C2)CN3)c1F (single isomer, unassigned) [Compound 261b] | 37.1 |
| Cc1c(CC#N)ccnc1-c1cccc(-c2cnc3c(c2Cl)[C@]2(CC[C@](C)(C#N)C2)CN3)c1F (single isomer, unassigned) [Compound 266a] | 65.3 |
| Cc1c(CC#N)ccnc1-c1cccc(-c2cnc3c(c2Cl)[C@]2(CC[C@](C)(C(N)=O)C2)CN3)c1F (single isomer, unassigned) [Compound 267a] | 110 |
| CN(C)CCN(C)C(=O)c1c(N)ccc(-c2cnc3c(c2Cl)[C@]2(CC[C@](C)(C#N)C2)CN3)c1F (single isomer, unassigned) [Compound 271a] | 24.9 |
| Cc1c(CC#N)ccnc1-c1cc(N)cc(-c2cnc3c(c2Cl)[C@]2(CC[C@](C)(C#N)C2)CN3)c1 (single isomer, unassigned) [Compound 274a] | 13.3 |
| O=C1CCCCN1c1cccc2c(-c3cnc4c(c3Cl)[C@]3(CC[C@H](O)C3)CN4)c[nH]c12 (single isomer, unassigned) [Compound 300a] | 27 |
| O=C1CCCCN1c1cccc2c(-c3cnc4c(c3Cl)[C@@]3(CC[C@@H](O)C3)CN4)c[nH]c12 (single isomer, unassigned) [Compound 300b] | 270 |
| CO[C@@H]1C[C@@]2(CNc3ncc(-c4ccc(N)c(C(=O)N(C)C)c4F)c(Cl)c32)C[C@H]1O (stereo in doubt) [Compound 140a, 6-Amino-3-((1R,3S,4S)-4′-chloro-3-hydroxy-4-methoxy-1′,2′-dihydrospiro[cyclopentane-1,3′-pyrrolo[2,3-b]pyridin]-5′-yl)-2-fluoro-N,N-dimethylbenzamide] | 339 |
| CO[C@H]1C[C@]2(CNc3ncc(-c4ccc(N)c(C(=O)N(C)C)c4F)c(Cl)c32)C[C@@H]1O (stereo in doubt) [Compound 140b, 6-Amino-3-((1S,3R,4R)-4′-chloro-3-hydroxy-4-methoxy-1′,2′-dihydrospiro[cyclopentane-1,3′-pyrrolo[2,3-b]pyridin]-5′-yl)-2-fluoro-N,N-dimethylbenzamide] | 62.5 |
| CN(C)C(=O)c1c(N)ccc(-c2cnc3c(c2Cl)[C@]2(CN3)CC(O)C(n3ccnn3)C2)c1F (stereo in doubt) [Compound 146a, 6-Amino-3-((1R,3S,4S)-4′-chloro-3-hydroxy-4-(1H-1,2,3-triazol-1-yl)-1′,2′-dihydrospiro[cyclopentane-1,3′-pyrrolo[2,3-b]pyridin]-5′-yl)-2-fluoro-N,N-dimethylbenzamide] | 494 |
| CN(C)C(=O)c1cc(-c2cnc3c(c2)C2(CCCC2)CN3)ccc1N [Compound 1, 2-Amino-5-(1′,2′-dihydrospiro[cyclopentane-1,3′-pyrrolo[2,3-b]pyridin]-5′-yl)-N,N-dimethylbenzamide] | 28.8 |

Now those with a lower Ki, led by results:

| Ki [nM] | Structure (SMILES) |
| --- | --- |
| 4.76 | C[C@H]1C[C@@]12CNc1ncc(-c3ccc(N)c(C(=O)N(C)C)c3F)c(Cl)c12 (single isomer, unassigned) [Compound 228a] |
| 1.73 | C[C@@H]1C[C@]12CNc1ncc(-c3ccc(N)c(C(=O)N(C)C)c3F)c(Cl)c12 (single isomer, unassigned) [Compound 228b] |
| 11 | C[C@H](c1cnn(C)c1)N(C)C(=O)c1cccc(-c2cnc3c(c2)C2(CC2)CN3)c1F (single isomer, unassigned) [Compound 229a] |
| 3.92 | CC(C)[C@H]1C[C@@]12CNc1ncc(-c3ccc(N)c(C(=O)N(C)C)c3F)cc12 (single isomer, unassigned) [Compound 234a] |
| 0.89 | Cn1cc([C@H]2CCCCN2C(=O)c2c(N)ccc(-c3cnc4c(c3Cl)C3(CC=CC3)CN4)c2F)cn1 (single isomer, unassigned) [Compound 239a] |
| 3.87 | Cn1cc([C@H]2CCCCN2C(=O)c2cccc(-c3cnc4c(c3Cl)C3(CC=CC3)CN4)c2F)cn1 (single isomer, unassigned) [Compound 240a] |
| 5.78 | CC[C@H]1C[C@@]12CNc1ncc(-c3ccc(N)c(C(=O)N(C)C)c3F)cc12 (single isomer, unassigned) [Compound 243a] |
| 10.4 | CC[C@@H]1C[C@]12CNc1ncc(-c3ccc(N)c(C(=O)N(C)C)c3F)cc12 (single isomer, unassigned) [Compound 243b] |
| 10.3 | Cn1cc(C2CCCCN2C(=O)c2cccc(-c3cnc4c(c3Cl)[C@]3(CC[C@H](O)CC3)CN4)c2F)cn1 (single isomer, unassigned) [Compound 246a] |
| 5.2 | Cn1cc(C2CCCCN2C(=O)c2c(N)ccc(-c3cnc4c(c3Cl)[C@]3(CC[C@H](O)CC3)CN4)c2F)cn1 (single isomer, unassigned) [Compound 254a] |
| 4.2 | CN(C)C(=O)c1c(N)ccc(-c2cnc3c(c2Cl)[C@]2(CC[C@](C)(C#N)C2)CN3)c1F (single isomer, unassigned) [Compound 261a] |
| 3.9 | Cc1c(CC#N)ccnc1-c1cccc(-c2cnc3c(c2Cl)[C@@]2(CC[C@@](C)(C#N)C2)CN3)c1F (single isomer, unassigned) [Compound 266b] |
| 0.39 | Cc1c(CC#N)ccnc1-c1cccc(-c2cnc3c(c2Cl)[C@@]2(CC[C@@](C)(C(N)=O)C2)CN3)c1F (single isomer, unassigned) [Compound 267b] |
| 0.9 | Cc1c(CC#N)ccnc1-c1cc(N)cc(-c2cnc3c(c2Cl)[C@]2(CC[C@](C)(C#N)C2)CN3)c1 (single isomer, unassigned) [Compound 274b] |
